# Measurements taken from patent US11274091B2 (Dizal (Jiangsu) Pharmaceutical Co., Ltd., priority 2018, dated 2022).
# Legend:
# human TRPC3 ion channel = human TRPC3 ion channel (Homo sapiens (Human), UniProt Q13507); assay: Inhibition of TRPC3 FLIPR Assay (membrane potential dye, OAG challenge); assay type: cell-based; conditions: TRPC3 transfected AD293 cells, OAG at EC80; most potent isolated isomer; mean of minimum 2 experiments
# Description: (§1) TRPC3 and TRPC6 channel opening causes an influx of predominantly calcium and sodium cations that result in a change in the electrical potential across the cell membrane. This change in membrane potential can be monitored using membrane potential dyes in the following FLIPR™ (Fluorescent Imaging Plate Reader) assays.
# AD293 cells were transfected using the PLVX-puro lentivirus vector containing the coding sequence of the human TRPC3 ion channel. Puromycin-resistant cells were selected by treating with […] puromycin for two weeks. Monoclonal cells were obtained by limiting dilution and compared for their response to OAG in a membrane potential assay. The cells were grown in DMEM+10% fetal bovine serum (FBS)+1 μg/mL puromycin as culture medium.
# TRPC3 cells were plated at 9K/well into 384-well polystyrene plates. Cells were grown for 24 h at 37° C. plus 5% CO2 after which media was aspirated using a Tecan plate washer and replaced with 40 μL of dye loading buffer (130 mM NaCl, 5 mM KCl, 0.15 mM CaCl2, 1 mM MgCl2, 20 mM HEPES ((4-(2-hydroxyethyl)-1-piperazineethanesulfonic acid)), 5 mM NaHCO3). For TRPC3 a final concentration of 0.5× membrane potential dye (Molecular Devices Membrane Blue, FLIPR Membrane Potential Assay Kit (bulk), Product #R8034(BLUE), Molecular Devices, Sunnyvale, Calif., 94089, USA) was used. Cells with membrane potential dye were then incubated for 30 mins at room temperature prior to beginning the experiments.
# To test the effects of compounds on TRPC3 activity, compounds were first diluted in 100% DMSO to 3× the final concentration to be used in the experiments. Typical dose-response experiments ranged from 10 μM (top concentration) to 0.5 nM (lowest concentration). Ten microliters of 5× compound in 0.5% DMSO were added to 40 μL of cells incubated with membrane potential dye. Compound addition was performed on a FLIPRTetra or a FLIPR 384 (MDS Analytical Technologies). After a 400 second incubation with compound, 12.5 μL of OAG was added at 5× the EC80 (typical EC80 for TRPC3=2 μM final). The OAG challenge is designed to measure the inhibitory activity of compounds on receptor-operated TRPC3 activation.
# (§2) All data was normalized to low controls (buffer alone) or high controls (OAG EC100). Data was analyzed using an XC50 curve fitting module and reported as pIC50 or IC50 values. The values are averaged to determine a mean value, for a minimum of 2 experiments.
# human TRPC6 ion channel = human TRPC6 ion channel (Homo sapiens (Human), UniProt Q9Y210); assay: Inhibition of TRPC6 FLIPR Assay (membrane potential dye, OAG challenge); assay type: cell-based; conditions: TRPC6-HEK293 cells, OAG at EC80; most potent isolated isomer; mean of minimum 2 experiments
# Chain of human TRPC6 ion channel (Q9Y210 whole entry): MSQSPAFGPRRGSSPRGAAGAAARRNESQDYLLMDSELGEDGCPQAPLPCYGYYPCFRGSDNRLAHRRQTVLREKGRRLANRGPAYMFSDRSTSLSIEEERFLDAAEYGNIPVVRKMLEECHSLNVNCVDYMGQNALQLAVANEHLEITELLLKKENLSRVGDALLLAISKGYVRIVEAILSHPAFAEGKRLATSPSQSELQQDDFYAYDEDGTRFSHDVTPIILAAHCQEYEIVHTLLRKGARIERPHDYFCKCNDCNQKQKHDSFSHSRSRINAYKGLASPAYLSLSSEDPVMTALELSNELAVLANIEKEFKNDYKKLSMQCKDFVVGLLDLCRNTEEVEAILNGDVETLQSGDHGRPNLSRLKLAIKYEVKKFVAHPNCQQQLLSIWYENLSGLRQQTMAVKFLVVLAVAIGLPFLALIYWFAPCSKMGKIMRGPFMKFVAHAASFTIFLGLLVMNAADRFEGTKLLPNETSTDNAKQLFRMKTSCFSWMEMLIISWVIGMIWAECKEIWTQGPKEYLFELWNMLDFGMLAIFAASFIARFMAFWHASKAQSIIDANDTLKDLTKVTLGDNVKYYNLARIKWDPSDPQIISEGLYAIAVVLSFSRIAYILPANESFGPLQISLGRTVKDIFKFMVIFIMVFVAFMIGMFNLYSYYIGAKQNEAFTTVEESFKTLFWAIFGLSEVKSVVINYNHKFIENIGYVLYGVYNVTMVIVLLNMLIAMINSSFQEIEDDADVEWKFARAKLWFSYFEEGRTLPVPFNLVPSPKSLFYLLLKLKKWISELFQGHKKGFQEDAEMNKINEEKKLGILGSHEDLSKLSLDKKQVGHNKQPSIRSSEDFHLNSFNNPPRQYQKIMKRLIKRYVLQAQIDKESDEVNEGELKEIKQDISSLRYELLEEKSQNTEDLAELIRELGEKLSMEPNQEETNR
# Description: as §1
# TRPC6-HEK293 was purchased from PerkinElmer (PerkinElmer, Product No.: AX-012-C), HEK293 cells were transfected using the pcDNA3.1(+)expression vector containing the coding sequence of the human TRPC6 ion channel. The coding sequence used is identical to coding sequence of GenBank NM_004621 with the exception of 2 synonym variations (t1683c and c2529t). The cells were grown in DMEM+10% fetal bovine serum (FBS) 0.5 mg/ml. Geneticin (ion channel expression selection) as culture medium.
# TRPC6 cells were plated at 10K cells/well into 384-well polystyrene plates and then grown for 24 hs at 37° C. plus 5% CO2. After this time the media was aspirated using a Tecan plate washer and then replaced with 40 μL of dye loading buffer (130 mM NaCl, 5 mM KCl, 0.15 mM CaCl2, 1 mM MgCl2, 20 mM HEPES ((4-(2-hydroxyethyl)-1-piperazineethanesulfonic acid)), 5 mM NaHCO3). For TRPC6, a final concentration of 0.5× is used. Cells with membrane potential dye were then incubated for 30 mins at room temperature prior to beginning the experiments.
# To test the effects of compounds on TRPC6 activity, compounds were first diluted in 100% DMSO to 3× the final concentration to be used in the experiments. Typical dose-response experiments ranged from 10 μM (top concentration) to 0.5 nM (lowest concentration). Ten microliters of […] compound in 0.5% DMSO were added to 40 μL of cells incubated with membrane potential dye. Compound addition was performed on a FLIPRTetra or a FLIPR 384 (MDS Analytical Technologies, Molecular Devices, Sunnyvale, Calif., 94089, USA). After a 400 second incubation with compound, […] OAG (1-oleoyl-2-acetyl-sn-glycerol (OAG), Sigma, Gillingham, Dorset, SP8 4XT Cat #O6754-10 MG) was added at 5× the EC80 (typical EC80 for TRPC6=3 μM final). The OAG challenge is designed to measure the inhibitory activity of compounds on receptor-operated TRPC6 activation.
# as §2
# Chain of human TRPC3 ion channel (Q13507 whole entry): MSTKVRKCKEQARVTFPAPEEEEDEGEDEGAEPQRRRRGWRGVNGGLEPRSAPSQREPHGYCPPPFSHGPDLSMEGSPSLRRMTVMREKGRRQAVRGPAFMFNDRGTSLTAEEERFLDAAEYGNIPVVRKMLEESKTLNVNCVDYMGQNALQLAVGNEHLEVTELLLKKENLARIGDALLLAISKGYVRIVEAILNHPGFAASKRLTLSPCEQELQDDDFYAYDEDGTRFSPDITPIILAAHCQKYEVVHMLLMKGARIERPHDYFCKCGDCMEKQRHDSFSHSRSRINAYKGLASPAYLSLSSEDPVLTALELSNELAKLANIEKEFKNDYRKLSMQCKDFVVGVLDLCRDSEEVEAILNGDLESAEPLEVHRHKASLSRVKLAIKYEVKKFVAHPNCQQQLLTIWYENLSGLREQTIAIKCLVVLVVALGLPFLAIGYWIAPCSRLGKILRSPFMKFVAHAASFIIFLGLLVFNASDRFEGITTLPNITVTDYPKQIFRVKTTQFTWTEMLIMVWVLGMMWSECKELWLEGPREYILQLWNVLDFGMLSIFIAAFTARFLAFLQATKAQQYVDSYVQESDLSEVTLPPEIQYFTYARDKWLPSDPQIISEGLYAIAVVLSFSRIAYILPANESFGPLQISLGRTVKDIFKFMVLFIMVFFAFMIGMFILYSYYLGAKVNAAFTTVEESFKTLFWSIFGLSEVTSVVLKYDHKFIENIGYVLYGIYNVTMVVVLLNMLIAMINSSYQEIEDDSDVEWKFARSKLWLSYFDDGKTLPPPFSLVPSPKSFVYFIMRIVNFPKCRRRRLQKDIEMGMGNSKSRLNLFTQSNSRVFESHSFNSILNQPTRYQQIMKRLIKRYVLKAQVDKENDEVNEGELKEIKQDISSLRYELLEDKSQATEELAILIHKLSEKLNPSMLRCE
Structure (SMILES),IC50 (human TRPC3 ion channel),IC50 (human TRPC6 ion channel)
"COc1cc(C2CC(Oc3ccc(C#N)cc3)C(N3CCCC(N)C3)C2)ccc1F (stereo not drawn) [Example 15, 4-[2-(3-amino-1-piperidyl)-4-(4-fluoro-3-methoxy-phenyl)cyclopentoxy]benzonitrile]",22.5 nM,9.51 nM
"N[C@@H]1C[C@@H](F)CN([C@@H]2C[C@H](c3ccc(F)cc3)C[C@H]2n2cncn2)C1 [Example 10, (3R,5R)-5-fluoro-1-[(1R,2R,4S)-4-(4-fluorophenyl)-2-(1,2,4-triazol-1-yl)cyclopentyl]piperidin-3-amine]",16 nM,29.8 nM
"N#Cc1cnc(OC2CC(c3ccc(F)cc3)CC2N2CCCC(N)C2)cn1 (stereo not drawn) [Example 31, 5-[2-(3-amino-1-piperidyl)-4-(4-fluorophenyl)cyclopentoxy]pyrazine-2-carbonitrile]",25.5 nM,13.7 nM
"N#Cc1ccc(OC2CC(c3ccc(F)cc3)CC2N2CCCC(N)C2)cc1F (stereo not drawn) [Example 19, 4-[2-(3-amino-1-piperidyl)-4-(4-fluorophenyl)cyclopentoxy]-2-fluoro-benzonitrile]",64.5 nM,25.1 nM
"N#Cc1ccc(OC2CC(c3ccc(F)cc3)CC2N2CC(N)CC(F)(F)C2)cc1 (stereo not drawn) [Example 18, 4-[2-(5-amino-3,3-difluoro-1-piperidyl)-4-(4-fluorophenyl)cyclopentoxy]benzonitrile]",42.5 nM,31.1 nM
"Cc1cc(C#N)nnc1OC1CC(c2ccc(F)cc2)CC1N1CC(N)CC(F)C1 (stereo not drawn) [Example 22, 6-[2-(3-amino-5-fluoro-1-piperidyl)-4-(4-fluorophenyl)cyclopentoxy]-5-methyl-pyridazine-3-carbonitrile]",118 nM,28.8 nM
"NC1CC(F)CN(C2CC(c3ccc(F)cc3)CC2n2cccn2)C1 (stereo not drawn) [Example 9, 5-fluoro-1-[4-(4-fluorophenyl)-2-pyrazol-1-yl-cyclopentyl]piperidin-3-amine]",6.64 nM,3.4 nM
"N#Cc1ncc(OC2CC(c3ccc(F)cc3)CC2N2CCCC(N)C2)cn1 (stereo not drawn) [Example 32, 5-[2-(3-amino-1-piperidyl)-4-(4-fluorophenyl)cyclopentoxy]pyrimidine-2-carbonitrile]",39.2 nM,10.6 nM
"N#Cc1ccccc1OC1CC(c2ccccc2)CC1N1CCCC(N)C1 (stereo not drawn) [Example 20, 2-[2-(3-amino-1-piperidyl)-4-phenyl-cyclopentoxy]benzonitrile]",38.8 nM,14.1 nM
"NC1CC(F)CN(C2CC(c3ccc(F)cc3)CC2n2ncnn2)C1 (stereo not drawn) [Example 11, 5-fluoro-1-[4-(4-fluorophenyl)-2-(tetrazol-2-yl)cyclopentyl]piperidin-3-amine]",4.03 nM,10.6 nM
"N#Cc1ccc(OC2CC(c3ccc(F)cc3)CC2N2CC(N)CC(F)C2)nn1 (stereo not drawn) [Example 24, 6-[2-(3-amino-5-fluoro-1-piperidyl)-4-(4-fluorophenyl)cyclopentoxy]pyridazine-3-carbonitrile]",7.2 nM,> 11.8 nM
"N#Cc1ccc(OC2CC(c3ccccc3)CC2N2CCCC(N)C2)c(Cl)c1 (stereo not drawn) [Example 21, 4-[2-(3-amino-1-piperidyl)-4-phenyl-cyclopentoxy]-3-chloro-benzonitrile]",72.3 nM,17.4 nM
"N#Cc1cnc(OC2CC(c3ccc(F)cc3)CC2N2CCCC(N)C2)nc1 (stereo not drawn) [Example 30, 2-[2-(3-amino-1-piperidyl)-4-(4-fluorophenyl)cyclopentoxy]pyrimidine-5-carbonitrile]",24 nM,11.5 nM
"N#Cc1cnn(C2CC(c3ccc(F)cc3)CC2N2CCC(F)(F)C(N)C2)c1 (stereo not drawn) [Example 7, 1-[2-(3-amino-4,4-difluoro-1-piperidyl)-4-(4-fluorophenyl)cyclopentyl]pyrazole-4-carbonitrile]",17.5 nM,16.2 nM
"N#Cc1cnn(C2CC(c3ccc(F)cc3)CC2N2CC(N)CC(F)C2)c1 (stereo not drawn) [Example 6, 1-[2-(3-amino-5-fluoro-1-piperidyl)-4-(4-fluorophenyl)cyclopentyl]pyrazole-4-carbonitrile]",6.22 nM,4.06 nM
"N#Cc1ccc(OC2CC(c3cccc(F)c3)CC2N2CCCC(N)C2)c(Cl)c1 (stereo not drawn) [Example 16, 4-[2-(3-amino-1-piperidyl)-4-(3-fluorophenyl)cyclopentoxy]-3-chloro-benzonitrile]",69.5 nM,19.3 nM
"N#Cc1ccc(OC2CC(c3ccc(F)cc3)CC2N2CCC(F)(F)C(N)C2)cc1 (stereo not drawn) [Example 17, 4-[2-(3-amino-4,4-difluoro-1-piperidyl)-4-(4-fluorophenyl)cyclopentoxy]benzonitrile]",46.1 nM,20.7 nM

# Next, values leading:
IC50 (human TRPC3 ion channel),IC50 (human TRPC6 ion channel),Structure (SMILES)
4.28 nM,3.78 nM,"N#Cc1cn(C2CC(c3ccc(F)cc3)CC2N2CCCC(N)C2)nn1 (stereo not drawn) [Example 5, 1-[2-(3-amino-1-piperidyl)-4-(4-fluorophenyl)cyclopentyl]triazole-4-carbonitrile]"
11.3 nM,6.56 nM,"NC1CCCN(C2CC(c3ccc(F)cc3)CC2Oc2nnccc2Cl)C1 (stereo not drawn) [Example 23, 1-[2-(4-chloropyridazin-3-yl)oxy-4-(4-fluorophenyl)cyclopentyl]piperidin-3-amine]"
7.55 nM,26.7 nM,"NC1CCCN(C2CC(c3ccc(F)cc3)CC2n2ncnn2)C1 (stereo not drawn) [Example 12, 1-[4-(4-fluorophenyl)-2-(tetrazol-2-yl)cyclopentyl]piperidin-3-amine]"
50.7 nM,22 nM,N#Cc1ccc(OC2CC(c3ccc(F)cc3)CC2N2CCCC(N)C2)cn1 (stereo not drawn) [Example 27]
14.3 nM,7.1 nM,"N#Cc1ncn(C2CC(c3ccc(F)cc3)CC2N2CCCC(N)C2)n1 (stereo not drawn) [Example 13, 1-[2-(3-amino-1-piperidyl)-4-(4-fluorophenyl)cyclopentyl]-1,2,4-triazole-3-carbonitrile]"
7.97 nM,2.8 nM,"NC1CCCN(C2CC(c3ccc(F)cc3)CC2n2cccn2)C1 (stereo not drawn) [Example 8, 1-[4-(4-fluorophenyl)-2-pyrazol-1-yl-cyclopentyl]piperidin-3-amine]"
209 nM,9.93 nM,"N[C@@H]1CCCN([C@H]2C[C@@H](c3ccc(F)cc3)C[C@@H]2Oc2cc(F)cnn2)C1 [Example 25, (R)-1-((1S,2S,4R)-4-(4-fluorophenyl)-2-(5-fluoropyridazin-3-yloxy)cyclopentyl)piperidin-3-amine]"
46.4 nM,< 19.9 nM,"N#Cc1ccn(C2CC(c3ccc(F)cc3)CC2N2CCCC(N)C2)n1 (stereo not drawn) [Example 3, 1-[2-(3-amino-1-piperidyl)-4-(4-fluorophenyl)cyclopentyl]pyrazole-3-carbonitrile]"
17.7 nM,3.37 nM,"NC1CCCN(C2CC(c3ccc(F)cc3)CC2n2nccn2)C1 (stereo not drawn) [Example 1, 1-[4-(4-fluorophenyl)-2-(triazol-2-yl)cyclopentyl]piperidin-3-amine]"
8.31 nM,7.97 nM,"N#Cc1cnn(C2CC(c3ccc(F)cc3)CC2N2CCCC(N)C2)c1 (stereo not drawn) [Example 2, 1-[2-(3-amino-1-piperidyl)-4-(4-fluorophenyl)cyclopentyl]pyrazole-4-carbonitrile]"
